This note sets out measurements from publication PMC3930709, “Selective Activation of hTRPV1 by N-Geranyl Cyclopropylcarboxamide, an Amiloride-Insensitive Salt Taste Enhancer” (PLoS ONE, 2014).

The target in this assay is T1, αβγ hENaC (Homo sapiens, UniProt P37088+P51168+P51170).
T1 construct: GFP; host or cells: HEK293T
T1 sequence (P37088 1-669): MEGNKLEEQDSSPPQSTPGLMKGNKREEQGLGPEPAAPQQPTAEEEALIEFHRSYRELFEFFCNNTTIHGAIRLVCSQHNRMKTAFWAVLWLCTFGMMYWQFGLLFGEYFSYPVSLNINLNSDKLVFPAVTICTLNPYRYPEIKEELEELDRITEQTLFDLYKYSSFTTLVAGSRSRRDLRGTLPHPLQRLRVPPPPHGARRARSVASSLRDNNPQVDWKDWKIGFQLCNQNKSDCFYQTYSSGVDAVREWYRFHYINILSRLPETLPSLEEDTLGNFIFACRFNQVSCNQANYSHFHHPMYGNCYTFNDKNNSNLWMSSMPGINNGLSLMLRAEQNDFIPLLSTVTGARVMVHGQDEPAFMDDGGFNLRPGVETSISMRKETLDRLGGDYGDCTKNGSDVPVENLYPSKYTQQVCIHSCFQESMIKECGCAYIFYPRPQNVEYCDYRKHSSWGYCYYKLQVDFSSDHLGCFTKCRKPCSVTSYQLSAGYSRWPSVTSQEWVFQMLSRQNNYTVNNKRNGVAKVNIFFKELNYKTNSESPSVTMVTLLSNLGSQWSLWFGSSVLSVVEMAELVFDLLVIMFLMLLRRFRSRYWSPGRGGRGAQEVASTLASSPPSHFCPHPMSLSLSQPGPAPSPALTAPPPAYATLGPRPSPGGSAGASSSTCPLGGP
T1 sequence (P51168 1-640): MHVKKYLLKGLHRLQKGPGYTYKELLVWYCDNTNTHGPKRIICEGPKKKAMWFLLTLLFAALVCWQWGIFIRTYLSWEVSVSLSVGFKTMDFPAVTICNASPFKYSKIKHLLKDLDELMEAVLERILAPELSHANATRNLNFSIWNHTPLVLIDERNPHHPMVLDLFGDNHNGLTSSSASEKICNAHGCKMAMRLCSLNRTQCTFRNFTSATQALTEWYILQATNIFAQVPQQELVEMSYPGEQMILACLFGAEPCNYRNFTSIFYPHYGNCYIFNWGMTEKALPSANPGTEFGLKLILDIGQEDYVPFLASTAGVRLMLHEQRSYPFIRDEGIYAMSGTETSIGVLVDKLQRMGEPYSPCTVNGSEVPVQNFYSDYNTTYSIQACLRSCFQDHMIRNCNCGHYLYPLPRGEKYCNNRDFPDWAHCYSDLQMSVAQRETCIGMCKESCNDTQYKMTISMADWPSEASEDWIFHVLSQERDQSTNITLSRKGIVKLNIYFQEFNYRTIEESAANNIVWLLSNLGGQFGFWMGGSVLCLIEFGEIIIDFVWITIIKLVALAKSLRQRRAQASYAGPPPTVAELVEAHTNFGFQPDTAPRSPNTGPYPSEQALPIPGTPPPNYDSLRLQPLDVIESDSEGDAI
T1 sequence (P51170 1-649): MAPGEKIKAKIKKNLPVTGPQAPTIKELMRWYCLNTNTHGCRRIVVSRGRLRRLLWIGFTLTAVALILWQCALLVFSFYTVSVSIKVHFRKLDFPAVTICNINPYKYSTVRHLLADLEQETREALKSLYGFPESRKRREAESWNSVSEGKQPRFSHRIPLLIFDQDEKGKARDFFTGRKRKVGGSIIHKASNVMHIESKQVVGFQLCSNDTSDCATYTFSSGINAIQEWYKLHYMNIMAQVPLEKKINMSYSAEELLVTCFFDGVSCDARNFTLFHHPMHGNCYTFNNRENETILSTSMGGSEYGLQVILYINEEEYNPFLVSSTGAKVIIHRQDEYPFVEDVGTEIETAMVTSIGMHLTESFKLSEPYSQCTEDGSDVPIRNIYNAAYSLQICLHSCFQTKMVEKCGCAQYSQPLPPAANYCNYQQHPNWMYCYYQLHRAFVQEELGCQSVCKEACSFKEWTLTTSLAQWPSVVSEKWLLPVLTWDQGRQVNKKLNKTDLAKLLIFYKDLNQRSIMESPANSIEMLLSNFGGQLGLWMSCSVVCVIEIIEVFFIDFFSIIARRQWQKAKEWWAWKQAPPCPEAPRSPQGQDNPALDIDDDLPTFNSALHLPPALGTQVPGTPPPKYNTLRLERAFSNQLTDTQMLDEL
Description: Membrane potential assay (FMP dye) on αβγ hENaC-expressing cells. The format is cell-based. As to conditions: relative to buffer alone, 0.01-10 µM. How it is done:
The α, β, and γ hENaC subunits were cloned from OriGene (Rockville, MD; GenBank accession number […] for SCNN1A, NM_000336 for SCNN1B and NM_001039 for SCNN1G). α, GFP-tagged β, and γ hENaC were cloned into a CMV promoter-based vector and expressed constitutively. The HEK293T cells were seeded onto a 35 mm dish and transfected with α, β, and γ hENaC expression plasmid using Lipofectamine 2000 (Invitrogen). Then, transfected cells were seeded onto 96-well black-wall plate for 18–26 h prior to their use in an experiment.
hENaC-expressing cells were characterized using FLIPER Membrane Potential (FMP) Assay Kit (Molecular Devices Corporation, Sunnyvale, CA, USA). In this assay, changes in the membrane potential were quantified via fluorescence change caused by FMP dye. The hENaC-expressing cells were washed with assay buffer (containing: 130 mM NaCl, 10 mM glucose, 5 mM KCl, 2 mM CaCl2, 1.2 mM MgCl2, and 10 mM HEPES, pH adjusted to 7.4 with NaOH) and subsequently, FMP blue-dye in assay buffer was loaded into the cells at room temperature for 30 min. After dye treatment, S3969 (0.03−10 µM), an ENaC agonist, S3969+Bz (ENaC antagonist, 0.01 µM), or NGCC (0.01−10 µM) was treated to hENaC-expressing cells. The plate was assayed in a FlexStation III plate reader (Molecular devices Corporation) by excitation at 530 nm and measuring the emission at 560 nm.

SMILES strings stand for the structures.

Turning to `CC(C)=CCC/C(C)=C/CNC(=O)C1CC1` [NGCC, N-geranylcyclopropylcarboxamide], the “change in membrane potential in αβγ hENaC-expressing cells” value is on record as “no significant changes in membrane potential”.
